Measurements as given in US9624201B2, “Inhibitors of bruton's tyrosine kinase” (Hoffmann-La Roche Inc., priority 2013, dated 2017).

biological target: Bruton's Tyrosine Kinase (inactivated state) (Homo sapiens (Human), UniProt Q06187); assay: Bruton's Tyrosine Kinase (BTK) Inhibition TR-FRET (Time Resolved FRET) competition assay; assay type: binding; conditions: inactivated state of BTK; Kinase Tracer 178; incubated 18-24 h at 14° C.
Experimental: This BTK competition assay measures compound potency (IC50) for the inactivated state of Bruton's Tyrosine Kinase using FRET (Forster/Flouresence Resonance Energy Transfer) technology. The BTK-Eu complex was incubated on ice one hour prior to use at a starting concentration of 50 nM BTK-Bioease™: 10 nM Eu-streptavidin (Perkin-Elmer Catalog# AD0062). The assay buffer consisted of 20 mM HEPES (pH 7.15), 0.1 mM DTT, 10 mM MgCl2, 0.5 mg/ml BSA with 3% Kinase Stabilizer (Fremont Biosolutions, Catalog # STB-K02). After 1 h, the reaction mixture from above was diluted 10 fold in assay buffer to make 5 nM BTK: 1 nM Eu-Streptavidin complex (donor fluorophore). 18 μl of a mixture of 0.11 nM BTK-Eu and 0.11 nM Kinase Tracer 178 (Invitrogen, Catalog # PV5593,) with BTK-Eu alone as no negative control, was then dispensed into 384-well flat bottom plates (Greiner, 784076). Compounds to be tested in assay were prepared as 10× concentrations and serial dilution in half-log increments was performed in DMSO so as to generate 10 point curves. To initiate the FRET reaction, compounds prepared as 10× stock in DMSO was added to the plates and the plates were incubated 18-24 h at 14° C.
After the incubation the plates were read on a BMG Pherastar Fluorescent plate reader (or equivalent) and used to measure the emission energy from the europium donor fluorophore (620 nm emission) and the FRET (665 nm emission). The negative control well values were averaged to obtain the mean minimum. The positive “no inhibitor” control wells were averaged to obtain the mean maximum. Percent of maximal FRET was calculated using following equation: % max FRET=100×[(FSRcmpd−FSRmean min)/(FSRmean max−FSRmean min)] where FSR=FRET Signal ratio. % Max FRET curves were plotted in Activity Base (Excel) and the IC50(%), hill slope, z′ and % CV were determined. The mean IC50 and standard deviation will be derived from duplicate curves (singlet inhibition curves from two independent dilutions) using Microsoft Excel.

Sequence of Bruton's Tyrosine Kinase (inactivated state) (Q06187 whole entry): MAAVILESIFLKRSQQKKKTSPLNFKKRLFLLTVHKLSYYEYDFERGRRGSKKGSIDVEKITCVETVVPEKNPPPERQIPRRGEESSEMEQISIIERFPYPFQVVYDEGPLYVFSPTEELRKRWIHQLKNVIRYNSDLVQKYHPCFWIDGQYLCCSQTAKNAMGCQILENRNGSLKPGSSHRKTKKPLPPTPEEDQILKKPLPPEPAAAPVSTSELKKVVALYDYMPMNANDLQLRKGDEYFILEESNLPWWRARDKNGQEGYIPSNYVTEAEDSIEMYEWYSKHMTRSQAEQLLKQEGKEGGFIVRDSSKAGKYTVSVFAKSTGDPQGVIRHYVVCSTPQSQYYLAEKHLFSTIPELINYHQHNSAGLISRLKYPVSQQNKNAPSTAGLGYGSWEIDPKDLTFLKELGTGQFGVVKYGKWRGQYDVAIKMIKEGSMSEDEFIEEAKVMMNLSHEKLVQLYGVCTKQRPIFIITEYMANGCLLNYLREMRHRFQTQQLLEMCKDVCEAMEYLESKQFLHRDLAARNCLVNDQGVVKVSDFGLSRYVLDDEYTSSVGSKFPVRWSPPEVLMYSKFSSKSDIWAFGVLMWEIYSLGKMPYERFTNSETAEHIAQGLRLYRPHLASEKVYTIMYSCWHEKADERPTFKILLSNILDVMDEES

IC50 [nM]	Compound
93.6	Cc1cc(Oc2cccc(C#N)c2)ccc1-n1ncc(C(=O)c2cc3c(C(=O)N4CCOCC4)cccc3[nH]2)c1N [Compound 15, 3-(4-{5-Amino-4-[4-(morpholine-4-carbonyl)-1H-indole-2-carbonyl]-pyrazol-1-yl}-3-methyl-phenoxy)-benzonitrile]
85.1	Cc1cc(Oc2cccc(F)c2F)ccc1-n1ncc(C(=O)c2cc3c(-c4ccccc4)cccc3[nH]2)c1N [Compound 2, {5-Amino-1-[4-(2,3-difluoro-phenoxy)-2-methyl-phenyl]-1H-pyrazol-4-yl}-(4-phenyl-1H-indol-2-yl)-methanone]
8.38	Cc1cc(Oc2cccc(C#N)c2)ccc1-n1ncc(C(=O)c2cc3c(-c4cn[nH]c4)cccc3[nH]2)c1N [Compound 14, 3-(4-{5-Amino-4-[4-(1H-pyrazol-4-yl)-1H-indole-2-carbonyl]-pyrazol-1-yl}-3-methyl-phenoxy)-benzonitrile]
61.5	Cc1cc(Oc2cccc(F)c2F)ccc1-n1ncc(C(=O)c2cc3c(Br)cccc3[nH]2)c1N [Compound 1, {5-Amino-1-[4-(2,3-difluoro-phenoxy)-2-methyl-phenyl]-1H-pyrazol-4-yl}-(4-bromo-1H-indol-2-yl)-methanone]
6.15	Cc1cc(Oc2cccc(F)c2F)ccc1-n1ncc(C(=O)c2cc3c(-c4ccccn4)cccc3[nH]2)c1N [Compound 8, {5-Amino-1-[4-(2,3-difluoro-phenoxy)-2-methyl-phenyl]-1H-pyrazol-4-yl}-(4-pyridin-2-yl-1H-indol-2-yl)-methanone]
21.1	COc1cccc(Cc2cccc3[nH]c(C(=O)c4cnn(-c5ccc(Oc6cccc(C#N)c6)cc5C)c4N)cc23)c1 [Compound 17, 3-(4-{5-Amino-4-[4-(3-methoxy-benzyl)-1H-indole-2-carbonyl]-pyrazol-1-yl}-3-methyl-phenoxy)-benzonitrile]
20.8	Cc1cc(Oc2cccc(F)c2F)ccc1-n1ncc(C(=O)c2cc3c(-n4cccn4)cccc3[nH]2)c1N [Compound 4, {5-Amino-1-[4-(2,3-difluoro-phenoxy)-2-methyl-phenyl]-1H-pyrazol-4-yl}-(4-pyrazol-1-yl-1H-indol-2-yl)-methanone]
201	Cc1cc(Oc2cccc(F)c2F)ccc1-n1ncc(C(=O)c2cc3c(-c4cccc(Cl)c4)cccc3[nH]2)c1N [Compound 12, {5-Amino-1-[4-(2,3-difluoro-phenoxy)-2-methyl-phenyl]-1H-pyrazol-4-yl}-[4-(3-chloro-phenyl)-1H-indol-2-yl]-methanone]
59.1	Cc1cc(Oc2cccc(F)c2F)ccc1-n1ncc(C(=O)c2cc3c(-c4cccc(C#N)c4)cccc3[nH]2)c1N [Compound 11, 3-(2-{5-Amino-1-[4-(2,3-difluoro-phenoxy)-2-methyl-phenyl]-1H-pyrazole-4-carbonyl}-1H-indol-4-yl)-benzonitrile]
214	Cc1cc(Oc2cccc(F)c2F)ccc1-n1ncc(C(=O)c2cc3c(-c4cccs4)cccc3[nH]2)c1N [Compound 5, {5-Amino-1-[4-(2,3-difluoro-phenoxy)-2-methyl-phenyl]-1H-pyrazol-4-yl}-(4-thiophen-2-yl-1H-indol-2-yl)-methanone]
39.1	Cc1cc(Oc2cccc(C#N)c2)ccc1-n1ncc(C(=O)c2cc3c(C(=O)N4CCN(C)CC4)cccc3[nH]2)c1N [Compound 16, 3-(4-{5-Amino-4-[4-(4-methyl-piperazine-1-carbonyl)-1H-indole-2-carbonyl]-pyrazol-1-yl}-3-methyl-phenoxy)-benzonitrile]
8.45	Cc1cc(Oc2cccc(C#N)c2)ccc1-n1ncc(C(=O)c2cc3c(CC#N)cccc3[nH]2)c1N [Compound 20, 3-{4-[5-Amino-4-(4-cyanomethyl-1H-indole-2-carbonyl)-pyrazol-1-yl]-3-methyl-phenoxy}-benzonitrile]
106	Cc1cc(Oc2cccc(F)c2F)ccc1-n1ncc(C(=O)c2cc3c(-c4ccsc4)cccc3[nH]2)c1N [Compound 3, {5-Amino-1-[4-(2,3-difluoro-phenoxy)-2-methyl-phenyl]-1H-pyrazol-4-yl}-(4-thiophen-3-yl-1H-indol-2-yl)-methanone]
33.1	Cc1cc(Oc2cccc(F)c2F)ccc1-n1ncc(C(=O)c2cc3c(Cc4ccccc4)cccc3[nH]2)c1N [Compound 9, {5-Amino-1-[4-(2,3-difluoro-phenoxy)-2-methyl-phenyl]-1H-pyrazol-4-yl}-(4-benzyl-1H-indol-2-yl)-methanone]
29.5	Cc1cc(Oc2cccc(F)c2F)ccc1-n1ncc(C(=O)c2cc3c(Cc4cccc(C#N)c4)cccc3[nH]2)c1N [Compound 13, 3-(2-{5-Amino-1-[4-(2,3-difluoro-phenoxy)-2-methyl-phenyl]-1H-pyrazole-4-carbonyl}-1H-indol-4-ylmethyl)-benzonitrile]
4.21	Cc1cc(Oc2cccc(F)c2F)ccc1-n1ncc(C(=O)c2cc3c(-c4cn[nH]c4)cccc3[nH]2)c1N [Compound 10, {5-Amino-1-[4-(2,3-difluoro-phenoxy)-2-methyl-phenyl]-1H-pyrazol-4-yl}-[4-(1H-pyrazol-4-yl)-1H-indol-2-yl]-methanone]

Compound	IC50 [nM]
Cc1cc(Oc2cccc(F)c2F)ccc1-n1ncc(C(=O)c2cc3c(C(=O)N4CCOCC4)cccc3[nH]2)c1N [Compound 6, {5-Amino-1-[4-(2,3-difluoro-phenoxy)-2-methyl-phenyl]-1H-pyrazol-4-yl}-[4-(morpholine-4-carbonyl)-1H-indol-2-yl]-methanone]	11.9
{5-Amino-1-[4-(2,3-difluoro-phenoxy)-2-methyl-phenyl]-1H-pyrazol-4-yl}-[4-(1-methyl-1H-pyrazol-4-yl)-1H-indol-2-yl]-methanone [Compound 7]	65.3
CNC(=O)c1cccc2[nH]c(C(=O)c3cnn(-c4ccc(Oc5cccc(C#N)c5)cc4C)c3N)cc12 [Compound 21, 2-{5-Amino-1-[4-(3-cyano-phenoxy)-2-methyl-phenyl]-1H-pyrazole-4-carbonyl}-1H-indole-4-carboxylic acid methylamide]	13
